Results reported in a melting point compilation (Tetko et al.).

Compound: COc1cc(Cl)c(Cl)cc1OC
- melting point: 83 °C

Compound: COC(=O)c1ccc(N(C)C)cc1
- melting point: 100 °C

Compound: O=C(O)C=Cc1ccc(Cl)c([N+](=O)[O-])c1
- melting point: 187 °C

Compound: CCCC(=O)C=Cc1ccc(O)c(O)c1
- melting point: 132 °C

Compound: CC(=O)N(c1ccccc1)c1nc(CCl)cs1
- melting point: 113 to 115 °C

Compound: COC(=O)CCC(C)C1CCC2C3CCC4CC(=O)CCC4(C)C3CCC12C (stereo not given)
- melting point: 116 to 118 °C

Compound: Cc1cnc(N)c(C)n1
- melting point: 96 °C

Compound: COC(=O)CNC(SC)=C(C#N)C#N
- melting point: 90 °C

Compound: COC(CC(C)=O)OC
- melting point: -82 °C

Compound: Cc1ccnc(SCC(=O)O)n1
- melting point: 192 °C

Compound: COc1cc2c(cc1OC)C(=S)NCC2
- melting point: 223 to 226 °C

Compound: COC(=O)c1cc(OCc2cc(COc3cc(C(=O)OC)cc(C(=O)OC)c3)cc(COc3cc(C(=O)OC)cc(C(=O)OC)c3)c2)cc(C(=O)OC)c1
- melting point: 188 °C

Compound: Cc1nccn1-c1ccc(N)cc1
- melting point: 112 to 113 °C

Compound: NCc1cc(C(F)(F)F)cc(C(F)(F)F)c1
- melting point: 57 °C

Compound: CCOC(=O)c1cnn(-c2ccc(Cl)cc2)c1C(F)(F)F
- melting point: 50 to 52 °C

Compound: Oc1cc(Cl)cc(Cl)c1O
- melting point: 82.5 °C

Compound: NC(=O)C(Br)CBr (stereo not given)
- melting point: 133 °C

Compound: CC(=O)OC1CCC2(C)C3CCC4=C(CCC4(C)C#CCl)C3CCC2(C)C1 (stereo not given)
- melting point: 109 to 110 °C

Compound: NC(=O)OCCCl
- melting point: 75.5 °C

Compound: Nc1ccc2c(c1)C(=O)c1ccccc1C2=O
- melting point: 304 °C

Compound: Cc1cc([N+]([O-])=Nc2ccccc2)c(C(C)C)cc1[N+]([O-])=Nc1ccccc1
- melting point: 127 °C

Compound: c1ccn2cccc2c1
- melting point: 75 °C

Compound: NCCCOCCCN
- melting point: 151 °C

Compound: CC(=NO)c1cccs1
- melting point: 113 to 114 °C

Compound: Nc1n[nH]cc1Br
- melting point: 133 to 135 °C

Compound: O=C(O)C(O)c1cccc(F)c1 (stereo not given)
- melting point: 96 °C

Compound: O=S(=O)(Cl)c1ccc(-c2ccccc2)cc1
- melting point: 115 °C

Compound: Nc1c(F)c(F)c(Br)c(F)c1F
- melting point: 59 to 61 °C

Compound: c1cnc2c(ccc3nccnc32)n1
- melting point: 249 to 252 °C

Compound: CCCCCCCCCCCCCCCCCCN(C)C
- melting point: 22.9 °C

Compound: C=CCC1(CC=C)C(=O)NC(=O)NC1=O
- melting point: 172 to 173 °C

Compound: CC12CCC(C(C(=O)c3ccccc3)C1=O)C2(C)C (stereo not given)
- melting point: 98 °C

Compound: CC(C)CCCC(C)C1CCC2C3CCC4=CC(=O)CCC4(C)C3CCC12C (stereo not given)
- melting point: 79 to 82 °C

Compound: Clc1cc2oc3c(Cl)c(Cl)c(Cl)cc3c2cc1Cl
- melting point: 196 °C

Compound: CC(C)(C)c1cnc(C(=O)Nc2cccc(Br)c2)cn1
- melting point: 113 to 114 °C

Compound: Nc1cccc([N+](=O)[O-])c1N
- melting point: 158 °C

Compound: Cn1nc(C(C)(C)C)cc1C(=O)O
- melting point: 151 to 154 °C

Compound: Fc1ccc(-c2n[nH]c(=S)n2-n2cccc2)cc1
- melting point: 234 °C

Compound: O=c1cc(C(F)(F)F)c2ccc(O)cc2o1
- melting point: 179 to 182 °C

Compound: CCOC(=O)c1cc(C)n(-c2cc(C)[nH]n2)n1
- melting point: 120 to 122 °C

Compound: O=S(=O)(Cl)c1c(Cl)nc2sccn12
- melting point: 137 to 139 °C

Compound: Nc1cc(-c2ccc(Cl)cc2)n[nH]1
- melting point: 174 to 176 °C

Compound: COC(=O)c1cccc([N+](=O)[O-])c1O
- melting point: 131 °C

Compound: Cc1cc(C)c(Cc2c(C)cc(C)cc2C)c(C)c1
- melting point: 130 °C

Compound: COc1cc(N)cc(OC)c1
- melting point: 55 °C

Compound: CC(=O)OC1(C(C)=O)CCC2C3CC(C(F)(F)F)C4=CC(=O)CCC4(C)C3CCC21C (stereo not given)
- melting point: 206 °C

Compound: CN1CC[C@@H](c2ccc(F)cc2)[C@H](CO)C1
- melting point: 97 to 101 °C

Compound: Cc1cccc2sc3nncn3c12
- melting point: 187 °C

Compound: O=C(O)C=Cc1ccco1
- melting point: 143 °C

Compound: CC(C)(C)OC(=O)N1CCN(c2ccccc2C(=O)O)CC1
- melting point: 165 to 166 °C

Compound: COc1ccc(N(C)C(=S)Cl)cc1
- melting point: 70 to 72 °C

Compound: Cc1ccc(N=C=Nc2ccc(C)cc2)cc1
- melting point: 58.5 °C

Compound: Cc1cc(C(C)(C)C)cc(C)c1O
- melting point: 82.4 °C

Compound: COc1ccc(C#N)c(Cl)c1OC
- melting point: 102 °C

Compound: NC(=O)/C(=C\c1ccc(Cl)cc1Cl)c1nc2ccccc2s1
- melting point: 263 °C

Compound: O=Cc1coc2c(Cl)cc(Cl)cc2c1=O
- melting point: 169 to 174 °C

Compound: Cc1ccccc1C1Cc2ccccc2C(O)O1 (stereo not given)
- melting point: 100 to 109 °C

Compound: Cc1cc(C)c(NC(=O)C(Br)C(C)(C)C)c(C)c1 (stereo not given)
- melting point: 185 to 188 °C

Compound: CC(N)P(=O)(O)O (racemic)
- melting point: 283 to 284 °C

Compound: CCc1occc(=O)c1O
- melting point: 162 °C

Compound: Clc1cc2c(oc3c(Cl)c(Cl)c(Cl)c(Cl)c32)c(Cl)c1Cl
- melting point: 233 °C

Compound: CC(=O)Nc1sc2c(c1C#N)CCCC2
- melting point: 215 to 217 °C

Compound: CCC(C)(C)c1ccc(O)cc1
- melting point: 95 °C

Compound: Cc1ccc(C(=O)O)c(N)c1
- melting point: 160 to 161 °C

Compound: OCCN1CCN(c2ncc(C(F)(F)F)cc2Cl)CC1
- melting point: 62 to 66 °C

Compound: N#CCCP(CCC#N)c1ccccc1
- melting point: 73 °C

Compound: N#CCc1coc2ccccc12
- melting point: 39 to 41 °C

Compound: COC(=O)c1ccc(Oc2cccnc2)o1
- melting point: 78 to 79 °C

Compound: Cc1cc(C)c(NC(=O)CN(CC(=O)O)CC(=O)O)c(C)c1
- melting point: 218 to 221 °C

Compound: Nc1ccc(O)c(C(=O)O)c1
- melting point: 284 °C

Compound: CN(C)c1ccc(N=C2C=CC(=O)C=C2)cc1
- melting point: 134 °C

Compound: COc1cc2c(c3oc(=O)c4c(c13)CCOC4=O)C1C=COC1O2 (stereo not given)
- melting point: 245 °C

Compound: Nc1ccc([N+](=O)[O-])cc1Cl
- melting point: 108 °C

Compound: Clc1cc(Cl)c2c(c1)oc1cc(Cl)cc(Cl)c12
- melting point: 207 °C

Compound: Cc1cc[nH]c1
- melting point: -48.4 °C

Compound: COC(=O)NC=Cc1ccc(C=CNC(=O)OC)cc1
- melting point: 360 °C

Compound: NC(=O)C1CCN(CCCN2c3ccccc3Sc3ccc(Cl)cc32)CC1
- melting point: 139 °C

Compound: COc1cc(F)c(Br)cc1F
- melting point: 63 °C

Compound: COc1ccc2c(c1)C(=O)CC(c1ccccc1)O2 (stereo not given)
- melting point: 142 °C

Compound: O=C(O)c1cccc(Cl)n1
- melting point: 194 °C

Compound: N#Cc1cnc(N)s1
- melting point: 185 °C

Compound: C1OCC2(CO1)COCOC2
- melting point: 48.3 °C

Compound: CC1=NN(c2ccc(Cl)cc2Cl)C(=O)C1C(Cl)C1(Cl)C(=O)N(c2ccc(Cl)cc2Cl)N=C1C (stereo not given)
- melting point: 110 to 120 °C

Compound: COc1ccc(C=CC(=O)c2ccccc2)c(OC)c1
- melting point: 69 to 70 °C

Compound: OCCCCCCCCCCCCBr
- melting point: 34 °C

Compound: O=C(NCc1ccccn1)C(F)(F)F
- melting point: 75 °C

Compound: Cc1nc(-c2ccc(N)cc2)cs1
- melting point: 140 to 141 °C

Compound: Cc1cc(C)c(C#N)c(O)n1
- melting point: 285 to 287 °C

Compound: CCOC(=O)COc1cc(Cl)c(Cl)cc1Cl
- melting point: 64 °C

Compound: CC1=C/C(=N/NC(N)=O)C(C(C)C)CC1 (stereo not given)
- melting point: 219 to 220 °C

Compound: O=c1occcc1O
- melting point: 93.8 °C

Compound: CC(C)(C)OCC1CO1 (stereo not given)
- melting point: -70 °C

Compound: Cc1onc(-c2ccccc2)c1N=C=O
- melting point: 39 to 40 °C

Compound: Oc1cc(C(F)(F)F)nc2c(Br)cccc12
- melting point: 136 to 137 °C

Compound: CCC(C(=O)O)c1ccc(CC(C)C)cc1 (stereo not given)
- melting point: 52 °C

Compound: CC(=O)c1ccc2[nH]c(=O)oc2c1
- melting point: 236 °C

Compound: Oc1cc(C(F)(F)F)nc2ccc(OC(F)(F)F)cc12
- melting point: 229 to 232 °C

Compound: O=Nc1ccc(Nc2ccccc2)cc1
- melting point: 143 °C

Compound: Clc1ccc(C(c2ccccc2)N2CCNCC2)cc1 (stereo not given)
- melting point: 65 to 75 °C

Compound: O=[N+]([O-])c1ccccc1SCl
- melting point: 74 °C

Compound: Clc1ccc(OCCCI)cc1
- melting point: 31 to 33 °C

Compound: O=C(Nc1ccc(Cl)cc1)Nc1ccc(Cl)cc1
- melting point: 270 °C

Compound: O=C(O)c1ccc2c(c1)CCCC2
- melting point: 156 °C

Compound: C=C(C)C1CCC(C)=CC1c1c(O)cc(CCCCC)cc1O (stereo not given)
- melting point: 67 °C

Compound: [O-][P+](c1ccccc1)(c1ccccc1)C1C=C(c2ccccc2)OC2=C1CCCC2 (stereo not given)
- melting point: 177 °C

Compound: NC(=O)OCC(COC(N)=O)c1ccccc1
- melting point: 151 °C

Compound: CC(=O)CC(c1ccc([N+](=O)[O-])cc1)c1c(O)oc2ccccc2c1=O (stereo not given)
- melting point: 197 °C

Compound: O=C1C(c2ccc(Br)cc2)=C(O)c2ccccc21
- melting point: 137 to 138 °C

Compound: Cc1ccc(O)c(-n2nc3ccccc3n2)c1
- melting point: 132 °C

Compound: Cc1cnnc2ccc3nonc3c12
- melting point: 171 to 173 °C

Compound: c1ccc(C2c3ccccc3-c3ccccc32)cc1
- melting point: 147 °C

Compound: CCCCOc1ccc(NC(=O)C(C(F)(F)F)C(F)(F)F)cc1
- melting point: 172 °C

Compound: O=C(O)CC(c1ccccc1)c1ccccc1
- melting point: 150 to 155 °C

Compound: Cn1nc(C(=O)O)cc1-c1cccs1
- melting point: 156 to 158 °C

Compound: COc1ccc2c(c1)CC1(CCC(O)(c3ccc(C(C)(C)C)cc3)CC1)C2=O (stereo not given)
- melting point: 183 to 184 °C

Compound: CCOC(=O)C(Br)C(=O)OCC
- melting point: -54 °C

Compound: O=[N+]([O-])c1ccc(-c2nnc3n2NC(c2ccc([N+](=O)[O-])cc2)S3)cc1 (stereo not given)
- melting point: 229 °C

Compound: c1ccc(-c2ccc(-c3nnc(-c4ccccc4)o3)cc2)cc1
- melting point: 168 to 172 °C

Compound: COC(=O)C1C(O)CCC2CN3CCc4c([nH]c5ccccc45)C3CC21 (stereo not given)
- melting point: 234 °C

Compound: O=C(NCCCCO)OCC1c2ccccc2-c2ccccc21
- melting point: 115 to 117 °C

Compound: CCOC(=O)c1cnc(NCc2ccccc2)s1
- melting point: 136 to 143 °C

Compound: CCOc1cc2c(cc1OCC)C(CC#N)NCC2 (stereo not given)
- melting point: 99 to 102 °C

Compound: Cc1nc(COc2ccc(C(N)=NO)cc2)cs1
- melting point: 193 to 194 °C

Compound: CC(=O)OC1(C(C)=O)CCC2C3CCC4=CC(=O)CCC4(C)C3(F)C(O)CC21C (stereo not given)
- melting point: 268 °C

Compound: Oc1nn(-c2ccc(Br)cc2)cc1Br
- melting point: 199 to 201 °C

Compound: COP(=O)(OC)c1ccccc1P(=O)(OC)OC
- melting point: 81 °C

Compound: CN(C)c1nc(=O)n(C2CCCCC2)c(=O)n1C
- melting point: 116 °C

Compound: O=COC1OC(=O)c2ccccc21 (stereo not given)
- melting point: 82 °C

Compound: CCC(c1ccc(O)c(C)c1)C(CC)c1ccc(O)c(C)c1 (stereo not given)
- melting point: 145 °C

Compound: Cc1ccc(C(=O)C=Cc2ccc(Cl)cc2)cc1
- melting point: 122 °C
